In ChEMBL document CHEMBL1909046, “DrugMatrix in vitro pharmacology data”:

What was measured:
[1] = DRUGMATRIX: Potassium Channel [KATP] radioligand binding (ligand: [3H] Glyburide); type: cell membranes, Membrane; conditions: hit-t15; Not Active = under 50% inhibition at 10 µM
[2] = biological target: Protein phosphatase 3 catalytic subunit alpha (Homo sapiens, UniProt Q08209); set-up: species or system Escherichia coli;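 also: inhibition of calcineurin (PP2B) enzyme activity, measured with DiFMUP as the substrate; in other assays of this panel Not Active means under 50% inhibition at 10 µM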
[3] = DRUGMATRIX: Sigma2 radioligand binding (ligand: [3H] Ifenprodil); type: cell membranes, Rattus norvegicus, Wistar, Brain, Membrane; conditions: Not Active = under 50% inhibition at 10 µM
[4] = biological target: T1, Angiotensin-converting enzyme (Oryctolagus cuniculus, UniProt P12822); assay: biochemical; type: tissue-based, Lung;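 also: enzymatic inhibition of angiotensin-converting enzyme measured with FAPGG as the substrate; in other assays of this panel Not Active means under 50% inhibition at 10 µM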
T1 sequence (P12822 whole entry): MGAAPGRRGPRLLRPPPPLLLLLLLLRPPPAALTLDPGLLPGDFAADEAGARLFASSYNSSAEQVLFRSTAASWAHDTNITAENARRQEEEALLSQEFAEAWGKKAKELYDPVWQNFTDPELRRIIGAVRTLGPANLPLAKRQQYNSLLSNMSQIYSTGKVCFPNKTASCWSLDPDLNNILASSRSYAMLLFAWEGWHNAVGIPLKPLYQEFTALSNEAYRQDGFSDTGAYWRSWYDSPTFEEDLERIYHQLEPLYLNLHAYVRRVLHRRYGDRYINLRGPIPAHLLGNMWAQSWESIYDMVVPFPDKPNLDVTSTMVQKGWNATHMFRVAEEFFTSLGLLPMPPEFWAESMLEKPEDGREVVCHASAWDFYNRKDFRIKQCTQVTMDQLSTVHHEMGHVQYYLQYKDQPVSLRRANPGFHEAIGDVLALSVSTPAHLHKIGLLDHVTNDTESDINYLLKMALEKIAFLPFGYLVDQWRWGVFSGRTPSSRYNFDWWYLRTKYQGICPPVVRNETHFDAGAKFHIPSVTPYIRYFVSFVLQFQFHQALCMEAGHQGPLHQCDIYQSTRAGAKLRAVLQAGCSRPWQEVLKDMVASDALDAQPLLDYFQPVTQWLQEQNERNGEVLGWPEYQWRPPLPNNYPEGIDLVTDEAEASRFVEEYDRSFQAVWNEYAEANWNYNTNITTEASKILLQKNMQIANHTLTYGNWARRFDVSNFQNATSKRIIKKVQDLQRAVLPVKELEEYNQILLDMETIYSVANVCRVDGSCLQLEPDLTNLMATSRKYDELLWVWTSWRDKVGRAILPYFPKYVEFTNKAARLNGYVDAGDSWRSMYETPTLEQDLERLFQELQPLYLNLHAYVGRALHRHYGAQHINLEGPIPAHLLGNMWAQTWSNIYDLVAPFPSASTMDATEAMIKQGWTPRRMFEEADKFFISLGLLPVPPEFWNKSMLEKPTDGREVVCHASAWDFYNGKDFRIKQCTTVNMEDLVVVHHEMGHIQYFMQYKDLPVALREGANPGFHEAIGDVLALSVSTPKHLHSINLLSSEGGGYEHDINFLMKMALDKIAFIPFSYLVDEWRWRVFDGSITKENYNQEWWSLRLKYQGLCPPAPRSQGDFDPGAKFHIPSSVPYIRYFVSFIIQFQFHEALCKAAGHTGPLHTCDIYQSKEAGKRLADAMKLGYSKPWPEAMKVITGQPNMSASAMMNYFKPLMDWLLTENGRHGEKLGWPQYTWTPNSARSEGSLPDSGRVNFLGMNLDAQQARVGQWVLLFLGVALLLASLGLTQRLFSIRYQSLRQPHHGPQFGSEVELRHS

[5] = biological target: T2, Muscarinic acetylcholine receptor M5 (Homo sapiens, UniProt P08912); type: cell membranes, CHO-K1, Membrane; conditions: cho-k1; also: in other assays of this panel Not Active means under 50% inhibition at 10 µM
T2 sequence (P08912 whole entry): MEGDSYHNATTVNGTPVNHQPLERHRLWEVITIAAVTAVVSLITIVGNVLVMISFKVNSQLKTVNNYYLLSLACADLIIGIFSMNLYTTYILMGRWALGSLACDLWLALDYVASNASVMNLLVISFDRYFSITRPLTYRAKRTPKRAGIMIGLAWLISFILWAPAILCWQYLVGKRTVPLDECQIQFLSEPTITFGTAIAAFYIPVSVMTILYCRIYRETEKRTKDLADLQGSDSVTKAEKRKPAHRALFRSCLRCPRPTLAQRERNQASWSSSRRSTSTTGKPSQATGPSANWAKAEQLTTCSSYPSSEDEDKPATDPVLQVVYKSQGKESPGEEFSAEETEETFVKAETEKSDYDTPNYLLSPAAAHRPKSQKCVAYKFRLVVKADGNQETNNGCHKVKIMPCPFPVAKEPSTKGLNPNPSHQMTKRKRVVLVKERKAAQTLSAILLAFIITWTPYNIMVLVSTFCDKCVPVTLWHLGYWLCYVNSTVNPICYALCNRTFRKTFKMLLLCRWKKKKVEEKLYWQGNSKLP

[6] = biological target: Platelet-activating factor receptor (Homo sapiens, UniProt P25105); assay: biochemical; type: tissue-based; conditions: platelet; also: in other assays of this panel Not Active means under 50% inhibition at 10 µM
[7] = biological target: T3, Alpha-1A adrenergic receptor (Rattus norvegicus, UniProt P43140); assay: DRUGMATRIX: Alpha-1A adrenergic receptor radioligand binding (ligand: prazosin); type: cell membranes, Wistar, Submaxillary gland, Membrane; conditions: Not Active = under 50% inhibition at 10 µM
T3 sequence (P43140 whole entry): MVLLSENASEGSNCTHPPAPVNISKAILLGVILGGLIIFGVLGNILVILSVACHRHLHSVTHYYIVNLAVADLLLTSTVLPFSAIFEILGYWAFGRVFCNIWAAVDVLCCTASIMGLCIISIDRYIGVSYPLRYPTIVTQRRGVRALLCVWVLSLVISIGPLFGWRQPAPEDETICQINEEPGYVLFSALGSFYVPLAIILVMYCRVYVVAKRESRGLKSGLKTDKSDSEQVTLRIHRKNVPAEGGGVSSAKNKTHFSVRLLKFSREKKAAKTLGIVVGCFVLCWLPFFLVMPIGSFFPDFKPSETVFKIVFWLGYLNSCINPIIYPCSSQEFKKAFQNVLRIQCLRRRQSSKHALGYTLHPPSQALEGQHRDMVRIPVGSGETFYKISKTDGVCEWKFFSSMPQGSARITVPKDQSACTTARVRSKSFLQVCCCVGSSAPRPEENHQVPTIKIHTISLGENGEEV

[8] = biological target: Beta-2 adrenergic receptor (Homo sapiens, UniProt P07550); assay: DRUGMATRIX: Adrenergic beta2 radioligand binding (ligand: [3H] CGP-12177); type: cell membranes, Membrane; conditions: cho; Not Active = under 50% inhibition at 10 µM
[9] = DRUGMATRIX: beta-Lactamase enzyme inhibition (substrate: Nitrocefin); set-up: species or system Bacillus cereus; conditions: Not Active = under 50% inhibition at 10 µM
Nitric oxide synthase 1 = Nitric oxide synthase 1 (Rattus norvegicus, UniProt P29476); type: tissue-based, Cerebellum; also: in other assays of this panel Not Active means under 50% inhibition at 10 µM
Chain of Nitric oxide synthase 1 (P29476 whole entry): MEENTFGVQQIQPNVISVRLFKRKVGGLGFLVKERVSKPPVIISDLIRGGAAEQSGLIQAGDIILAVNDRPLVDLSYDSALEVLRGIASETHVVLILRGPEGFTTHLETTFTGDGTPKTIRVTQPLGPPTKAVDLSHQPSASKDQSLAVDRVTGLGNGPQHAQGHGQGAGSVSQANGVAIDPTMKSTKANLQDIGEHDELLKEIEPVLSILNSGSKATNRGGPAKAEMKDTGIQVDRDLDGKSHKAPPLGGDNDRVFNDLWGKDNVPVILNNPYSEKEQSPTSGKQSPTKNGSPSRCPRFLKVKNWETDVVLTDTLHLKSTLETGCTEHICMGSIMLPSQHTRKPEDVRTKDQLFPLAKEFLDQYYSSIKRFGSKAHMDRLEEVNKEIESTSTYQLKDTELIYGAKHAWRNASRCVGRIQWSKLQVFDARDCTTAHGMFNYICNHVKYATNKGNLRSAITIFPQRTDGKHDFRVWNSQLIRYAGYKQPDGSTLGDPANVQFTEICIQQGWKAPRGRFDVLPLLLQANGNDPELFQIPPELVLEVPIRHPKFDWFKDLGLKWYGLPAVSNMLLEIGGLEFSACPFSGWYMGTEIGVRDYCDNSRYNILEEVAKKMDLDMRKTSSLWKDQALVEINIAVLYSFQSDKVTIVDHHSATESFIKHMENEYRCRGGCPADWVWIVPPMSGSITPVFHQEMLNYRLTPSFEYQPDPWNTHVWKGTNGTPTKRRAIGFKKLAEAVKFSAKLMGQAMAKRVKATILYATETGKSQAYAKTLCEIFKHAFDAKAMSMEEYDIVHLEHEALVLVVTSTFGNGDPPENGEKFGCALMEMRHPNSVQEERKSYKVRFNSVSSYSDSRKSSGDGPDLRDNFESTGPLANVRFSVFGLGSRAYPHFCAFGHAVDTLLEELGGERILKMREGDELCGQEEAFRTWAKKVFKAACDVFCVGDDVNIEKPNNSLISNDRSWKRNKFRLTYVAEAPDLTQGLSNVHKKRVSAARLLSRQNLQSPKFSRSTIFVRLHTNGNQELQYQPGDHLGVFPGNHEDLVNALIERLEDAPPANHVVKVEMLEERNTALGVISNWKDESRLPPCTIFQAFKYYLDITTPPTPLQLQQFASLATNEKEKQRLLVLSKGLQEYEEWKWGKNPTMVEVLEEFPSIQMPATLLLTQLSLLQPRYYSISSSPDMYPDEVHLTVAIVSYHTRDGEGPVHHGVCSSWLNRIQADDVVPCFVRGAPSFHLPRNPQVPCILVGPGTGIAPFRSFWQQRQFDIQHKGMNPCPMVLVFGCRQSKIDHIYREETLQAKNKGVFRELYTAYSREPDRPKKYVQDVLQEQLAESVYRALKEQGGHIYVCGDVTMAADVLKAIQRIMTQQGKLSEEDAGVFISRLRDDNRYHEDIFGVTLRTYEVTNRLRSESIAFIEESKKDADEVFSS

Chain of Platelet-activating factor receptor (P25105 whole entry): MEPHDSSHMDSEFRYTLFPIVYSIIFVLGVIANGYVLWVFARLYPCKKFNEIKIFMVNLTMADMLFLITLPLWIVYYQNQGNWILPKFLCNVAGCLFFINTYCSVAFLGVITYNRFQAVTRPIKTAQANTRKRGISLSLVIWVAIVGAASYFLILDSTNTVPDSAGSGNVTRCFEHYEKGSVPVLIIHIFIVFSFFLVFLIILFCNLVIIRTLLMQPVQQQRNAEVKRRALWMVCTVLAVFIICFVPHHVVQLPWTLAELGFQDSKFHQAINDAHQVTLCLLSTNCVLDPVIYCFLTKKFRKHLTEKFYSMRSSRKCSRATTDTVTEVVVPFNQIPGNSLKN
Chain of Beta-2 adrenergic receptor (P07550 whole entry): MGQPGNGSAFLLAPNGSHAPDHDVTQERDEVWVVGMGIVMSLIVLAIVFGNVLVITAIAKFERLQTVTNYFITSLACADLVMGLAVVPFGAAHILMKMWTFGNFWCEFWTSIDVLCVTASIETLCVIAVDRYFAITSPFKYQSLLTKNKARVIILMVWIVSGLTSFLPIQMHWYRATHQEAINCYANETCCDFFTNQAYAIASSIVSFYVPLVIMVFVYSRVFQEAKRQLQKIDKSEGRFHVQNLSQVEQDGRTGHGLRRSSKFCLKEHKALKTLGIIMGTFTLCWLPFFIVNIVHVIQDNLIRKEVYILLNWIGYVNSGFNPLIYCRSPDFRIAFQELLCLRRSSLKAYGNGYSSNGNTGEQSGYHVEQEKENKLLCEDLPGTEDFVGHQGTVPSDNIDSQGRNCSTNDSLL

## COC(=O)c1ccc(O)cc1 [METHYLPARABEN]
[1]
  IC50: Not Active
  Ki: Not Active
[2]
  IC50: Not Active
[3]
  IC50: Not Active
  Ki: Not Active
[4]
  IC50: Not Active
[5]
  IC50: Not Active
[6]
  IC50: Not Active
[7]
  IC50: Not Active
[8]
  IC50: Not Active
[9]
  IC50: Not Active
  Ki: Not Active
Nitric oxide synthase 1
  IC50: Not Active

## COc1ccc(C(CN(C)C)C2(O)CCCCC2)cc1 (stereo unspecified) [VENLAFAXINE]
[1]
  IC50: Not Active
  Ki: Not Active
[2]
  IC50: Not Active
[3]
  IC50: Not Active
  Ki: Not Active
[4]
  IC50: Not Active
[5]
  IC50: Not Active
[6]
  IC50: Not Active
[7]
  IC50: Not Active
[8]
  IC50: Not Active
[9]
  IC50: Not Active
  Ki: Not Active
Nitric oxide synthase 1
  IC50: Not Active

## COS(C)(=O)=O [METHANESULFONIC ACID METHYL ESTER]
[1]
  IC50: Not Active
  Ki: Not Active
[2]
  IC50: Not Active
[3]
  IC50: Not Active
  Ki: Not Active
[4]
  IC50: Not Active
[5]
  IC50: Not Active
[6]
  IC50: Not Active
[7]
  IC50: Not Active
[8]
  IC50: Not Active
[9]
  IC50: Not Active
  Ki: Not Active
Nitric oxide synthase 1
  IC50: Not Active

## CC1=C(/C=C/C(C)=C/C=C/C(C)=C\C(=O)O)C(C)(C)CCC1 [ISOTRETINOIN]
[1]
  IC50: Not Active
  Ki: Not Active
[2]
  IC50: Not Active
[3]
  IC50: Not Active
  Ki: Not Active
[4]
  IC50: Not Active
[5]
  IC50: Not Active
[6]
  IC50: Not Active
[7]
  IC50: Not Active
[8]
  IC50: Not Active
[9]
  IC50: Not Active
  Ki: Not Active
Nitric oxide synthase 1
  IC50: Not Active

## CO[C@@H]1[C@@H](O[C@@H]2O[C@H](C)[C@@H](O[C@H]3C[C@@](C)(O)[C@@H](OC(=O)CC(C)C)[C@H](C)O3)[C@H](N(C)C)[C@H]2O)[C@@H](CC=O)C[C@@H](C)[C@@H](O)/C=C/C=C/C[C@@H](C)OC(=O)C[C@H]1O [KITASAMYCIN]
[1]
  IC50: Not Active
  Ki: Not Active
[2]
  IC50: Not Active
[3]
  IC50: Not Active
  Ki: Not Active
[4]
  IC50: Not Active
[5]
  IC50: Not Active
[6]
  IC50: Not Active
[7]; read-out: IC50
  IC50: 1540 nM
[7]; read-out: Ki
  Ki: 625 nM
[8]
  IC50: Not Active
[9]
  IC50: Not Active
  Ki: Not Active
Nitric oxide synthase 1
  IC50: Not Active

## C[C@]12Cc3c[nH]nc3C[C@@H]1CC[C@@H]1[C@@H]2CC[C@@]2(C)[C@H]1CC[C@]2(C)O [STANOZOLOL]
[1]
  IC50: Not Active
  Ki: Not Active
[2]
  IC50: Not Active
[3]
  IC50: Not Active
  Ki: Not Active
[4]
  IC50: Not Active
[5]
  IC50: Not Active
[6]
  IC50: Not Active
[7]
  IC50: Not Active
[8]
  IC50: Not Active
[9]
  IC50: Not Active
  Ki: Not Active
Nitric oxide synthase 1
  IC50: Not Active

## CCOC(=O)[C@H](CCc1ccccc1)N[C@@H](C)C(=O)N1[C@H](C(=O)O)C[C@@H]2CCC[C@@H]21
[1]
  IC50: Not Active
  Ki: Not Active
[2]
  IC50: Not Active
[3]
  IC50: Not Active
  Ki: Not Active
[4]
  IC50: Not Active
[5]
  IC50: Not Active
[6]
  IC50: Not Active
[7]
  IC50: Not Active
[8]
  IC50: Not Active
[9]
  IC50: Not Active
  Ki: Not Active
Nitric oxide synthase 1
  IC50: Not Active

## CN[C@@H]1[C@@H](O)[C@@H](O[C@@H]2[C@@H](O)[C@H](O[C@H]3OC(CN)=CC[C@H]3N)[C@@H](N)C[C@H]2N)OC[C@]1(C)O [SISOMICIN]
[1]
  IC50: Not Active
  Ki: Not Active
[2]
  IC50: Not Active
[3]
  IC50: Not Active
  Ki: Not Active
[4]
  IC50: Not Active
[5]
  IC50: Not Active
[6]
  IC50: Not Active
[7]
  IC50: Not Active
[8]
  IC50: Not Active
[9]
  IC50: Not Active
  Ki: Not Active
Nitric oxide synthase 1
  IC50: Not Active

## Clc1ccc(C(c2ccccc2Cl)C(Cl)Cl)cc1 (stereo unspecified) [MITOTANE]
[1]
  IC50: Not Active
  Ki: Not Active
[2]
  IC50: Not Active
[3]
  IC50: Not Active
  Ki: Not Active
[4]
  IC50: Not Active
[5]
  IC50: Not Active
[6]
  IC50: Not Active
[7]
  IC50: Not Active
[8]
  IC50: Not Active
[9]
  IC50: Not Active
  Ki: Not Active
Nitric oxide synthase 1
  IC50: Not Active

## CN(C)[C@@H]1C(O)=C(C(N)=O)C(=O)[C@@]2(O)C(O)=C3C(=O)c4c(O)cccc4[C@@](C)(O)[C@H]3C[C@@H]12 [TETRACYCLINE]
[1]
  IC50: Not Active
  Ki: Not Active
[2]
  IC50: Not Active
[3]
  IC50: Not Active
  Ki: Not Active
[4]
  IC50: Not Active
[5]
  IC50: Not Active
[6]
  IC50: Not Active
[7]
  IC50: Not Active
[8]
  IC50: Not Active
[9]
  IC50: Not Active
  Ki: Not Active
Nitric oxide synthase 1
  IC50: Not Active
